The text below walks through data of patent US5025010A, “Benzothiazinone derivatives, and pharmaceuticals containing them” (Hoechst Aktiengesellschaft, priority 1987, dated 1991).

For one experiment, the target named is calcium channels. Description: displacement of tritium-labeled nitrendipine from membrane preparations containing isolated calcium channels. It is filed as binding. As to the method:
Their action on the calcium channels can be shown using the biochemical test model of the displacement of tritium-labeled nitrendipine. In this test, membrane preparations which contain isolated calcium channels are loaded with the labeled substance. After incubation with the test substance, the radioactivity released and the radioactivity remaining on the membrane are determined. The IC50 values shown by the compounds of the formula I, according to the invention, in this model are from 10^-6 molar to 10^-10 molar.

For the next experiment, the system named is isolated rabbit aorta. Description: isolated rabbit aorta: contraction of aorta rings depolarized with potassium chloride after pretreatment with the test substance. The following applies: Oryctolagus cuniculus, concentration of 10^-6 M, KCl-depolarized aorta rings. The text has this: Their calcium antagonistic or calcium agonistic action can be shown using the model of the isolated rabbit aorta. This entails aorta rings being depolarized with potassium chloride, whereupon they contract. Pretreatment with the test substance is followed by a diminution in contraction in the case of the compounds acting as calcium antagonists, but by an intensification of contraction in the case of compounds acting as calcium agonists. For example, the compound from Example 2 at a concentration of 10^-6 M results in a 32% diminution in contraction. The compound from Example 3 at a concentration of 10^-6 M results in a 93% intensification of contraction.

Where a name gives a salt, the structure may show the parent alone.

A word on the IC50: it is the point on the concentration scale where inhibition reaches its midpoint. For `COc1cc(CCN2CCN(CC#CCOc3ccccc3[C@@]3(C(C)C)Sc4ccccc4N(C)C3=O)CC2)cc(OC)c1OC` [Example 2, (R)-2-Isopropyl-4-methyl-2-[2-[4-[4-(3,4,5-trimethoxyphenethyl)-1-piperazinyl]-2-butyn-1 yloxy]phenyl]-2H-1,4-benzothiazin-3(4H)-one dihydrochloride], the IC50 at calcium channels turned out to be 0.12 nM. For the same molecule, the inhibition at 1 µM with isolated rabbit aorta (calcium antagonistic action, read-out: diminution in contraction) turned out to be 32%. Consider `COc1cc(CCN2CCN(C/C=C\COc3ccccc3[C@@]3(C(C)C)Sc4ccccc4N(C)C3=O)CC2)cc(OC)c1OC` [Example 3, (R)-2-isopropyl-4-methyl-2-[2-[4-[4-(3,4,5-trimethoxyphenethyl)-1-piperazinyl]-2-cis-buten-1-yloxy]phenyl]-2H-1,4-benzothiazin-3(4H)-one dihydrochloride], for which, in the experiment on isolated rabbit aorta (calcium agonistic action, read-out: intensification of contraction), the activation at 1 µM is 93%.
